# Earlier results, collected in patent US20150164812A1, “Porous Tablets As Carriers For Liquid Formulations” (Veloxis Pharmaceuticals A/S, priority 2004, published 2015).
# Structures can show the parent of a compound that is named as a salt. Where two headings read alike, the source gives them in different places.
# What was measured:
# [1] = not given; remark: listed apart in the source
# [2] = Table 1 Poorly-Soluble Drug Candidates
# [3] = Table 2 Poorly-Soluble Drugs with Low Bioavailability
SMILES,Solubility In Water [2],Solubility In Water [3],also measured
Cc1nnc2n1-c1ccc(Cl)cc1C(c1ccccc1)=NC2 [Alprazolam],Insoluble,–,–
COc1ccc(CCN2CCC(Nc3nc4ccccc4n3Cc3ccc(F)cc3)CC2)cc1 [Astemizole],Insoluble,Insoluble,Bioavailability ([1]; in words): Low-moderate
CC(=O)OC[C@H]1O[C@@H]([S-])[C@H](OC(C)=O)[C@@H](OC(C)=O)[C@@H]1OC(C)=O.CCP(CC)CC.[Au+] [Auranofin],–,Slightly soluble,Bioavailability ([1]; in vivo): Low (15-25%)
CN1CCCC(n2nc(Cc3ccc(Cl)cc3)c3ccccc3c2=O)CC1 (stereo not drawn) [Azelastine],Insoluble,–,–
OC(CCN1CCCCC1)(c1ccccc1)C1CC2C=CC1C2 (stereo not drawn) [Biperiden],–,Sparingly soluble,–
C=CCC1(CC(C)C)C(=O)NC(=O)NC1=O [Butalbital],Insoluble,–,–
NC(=O)N1c2ccccc2C=Cc2ccccc21 [Carbamazepine],Insoluble,–,–
C[C@@](Cc1ccc(O)c(O)c1)(NN)C(=O)O [Carbidopa],Slightly,–,–
CO/N=C(\C(=O)N[C@@H]1C(=O)N2C(C(=O)O)=C(COC(C)=O)CS[C@H]12)c1csc(N)n1 [Cefotaxime],Sparingly,–,–
CN1CCC[C@@H]1CCO[C@](C)(c1ccccc1)c1ccc(Cl)cc1 [Clemastine fumarate],–,Slightly soluble,–
CN1CCN(C2=Nc3cc(Cl)ccc3Nc3ccccc32)CC1 [Clozapine],Slightly,–,–
CC1CC(OC(=O)C(O)c2ccccc2)CC(C)(C)C1 (stereo not drawn) [Cyclandelate],–,Insoluble,Bioavailability ([1]; in words): Low
C#C[C@]1(O)CC[C@H]2[C@@H]3CCC4=Cc5oncc5C[C@]4(C)[C@H]3CC[C@@]21C [Danazol],–,–,Bioavailability ([1]; in words): Low
OCCN(CCO)c1nc(N2CCCCC2)c2nc(N(CCO)CCO)nc(N3CCCCC3)c2n1 [Dipyridamole],Slightly,–,–
CC(CCc1ccc(O)cc1)NCCc1ccc(O)c(O)c1 (stereo not drawn) [Dobutamine],Sparingly,–,–
COc1cc2nc(N3CCN(C(=O)C4COc5ccccc5O4)CC3)nc(N)c2cc1OC (stereo not drawn) [Doxazosin],Slightly,–,–
CCCCCc1cc(O)c2c(c1)OC(C)(C)[C@@H]1CCC(C)=C[C@@H]21 [Dronabinol],–,Insoluble,–
CCOC(=O)[C@H](CCc1ccccc1)N[C@@H](C)C(=O)N1CCC[C@H]1C(=O)O [Enalapril],Sparingly,–,–
CCc1cccc2c3c([nH]c12)C(CC)(CC(=O)O)OCC3 (stereo not drawn) [Etodolac],Insoluble,–,–
COc1cc([C@@H]2c3cc4c(cc3[C@@H](O[C@@H]3O[C@@H]5CO[C@@H](C)O[C@H]5[C@H](O)[C@H]3O)[C@H]3COC(=O)[C@H]23)OCO4)cc(OC)c1O [Etoposide],Very Slightly,–,–
NC(N)=Nc1nc(CSCCC(N)=NS(N)(=O)=O)cs1 [Famotidine],Slightly,Slightly soluble,–
CCOC(=O)C1=C(C)NC(C)=C(C(=O)OC)C1c1cccc(Cl)c1Cl (stereo not drawn) [Felodipine],Insoluble,Insoluble,–
CC(C)(C)NC(=O)[C@H]1CC[C@H]2[C@@H]3CC[C@H]4NC(=O)C=C[C@]4(C)[C@H]3CC[C@]12C [Finasteride],Insoluble,–,–
OC(Cn1cncn1)(Cn1cncn1)c1ccc(F)cc1F [Fluconazole],Slightly,–,–
OCCN1CCN(CCCN2c3ccccc3Sc3ccc(C(F)(F)F)cc32)CC1 [Fluphenazine],–,Insoluble,–

SMILES,Solubility In Water [2],Solubility In Water [3],also measured
CC(C(=O)O)c1ccc(-c2ccccc2)c(F)c1 (stereo not drawn) [Flurbiprofen],Slightly,–,–
COCCCC/C(=N\OCCN)c1ccc(C(F)(F)F)cc1 [Fluvoxamine],Sparingly,–,–
CC(C)Cc1ccc(C(C)C(=O)O)cc1 (stereo not drawn) [Ibuprofen],Insoluble,–,–
O=[N+]([O-])O[C@H]1CO[C@H]2[C@@H]1OC[C@H]2O[N+](=O)[O-] [Isosorbide dinitrate],Sparingly,Sparingly soluble,–
CC1=C(/C=C/C(C)=C/C=C/C(C)=C\C(=O)O)C(C)(C)CCC1 [Isotretinoin],Insoluble,–,–
COC(=O)C1=C(C)NC(C)=C(C(=O)OC(C)C)C1c1cccc2nonc12 (stereo not drawn) [Isradipine],Insoluble,Insoluble,–
CC(=O)N1CCN(c2ccc(OCC3COC(Cn4ccnc4)(c4ccc(Cl)cc4Cl)O3)cc2)CC1 (stereo not drawn) [Ketoconazole],Insoluble,–,–
Cc1c(OCC(F)(F)F)ccnc1C[S+]([O-])c1nc2ccccc2[nH]1 (stereo not drawn) [Lansoprazole],Insoluble,–,–
CC[C@H](C)C(=O)O[C@H]1C[C@@H](C)C=C2C=C[C@H](C)[C@H](CC[C@@H]3C[C@@H](O)CC(=O)O3)[C@H]21 [Lovastatin],Insoluble,Insoluble,–
Cc1cccc(Nc2ccccc2C(=O)O)c1C [Mefenamic acid],Slightly,–,–
C[C@@H]1C[C@H]2[C@@H]3CCC4=CC(=O)C=C[C@]4(C)[C@@]3(Cl)[C@@H](O)C[C@]2(C)[C@@]1(O)C(=O)CCl [Mometasone],Insoluble,–,–
COc1ccc2cc(CCC(C)=O)ccc2c1 [Nabumetone],Insoluble,Insoluble,–
CO[C@]12C[C@@H](COC(=O)c3cncc(Br)c3)CN(C)[C@@H]1Cc1cn(C)c3cccc2c13 [Nicergoline],Insoluble,–,–
COc1ccc2[nH]c([S+]([O-])Cc3ncc(C)c(OC)c3C)nc2c1 (stereo not drawn) [Omeprazole],Slightly,–,–
CC(=O)O[C@H]1C(=O)[C@@]2(C)[C@H]([C@H](OC(=O)c3ccccc3)[C@]3(O)C[C@H](OC(=O)[C@H](O)[C@@H](NC(=O)c4ccccc4)c4ccccc4)C(C)=C1C3(C)C)[C@]1(OC(C)=O)CO[C@@H]1C[C@@H]2O [Paclitaxel],Insoluble,–,–
OCCN1CCN(CCCN2c3ccccc3Sc3ccc(Cl)cc32)CC1 [Perphenazine],–,–,Bioavailability ([1]; in words): Low
O=C1NC(=O)C(c2ccccc2)(c2ccccc2)N1 [Phenytoin],Insoluble,–,–
CN1C(C(=O)Nc2ccccn2)=C(O)c2ccccc2S1(=O)=O [Piroxicam],Sparingly,–,–
CCOC(=O)[C@H](CCc1ccccc1)N[C@@H](C)C(=O)N1Cc2ccccc2C[C@H]1C(=O)O [Quinapril],Insoluble,–,–
CCOC(=O)[C@H](CCc1ccccc1)N[C@@H](C)C(=O)N1[C@H](C(=O)O)C[C@@H]2CCC[C@@H]21 [Ramipril],Insoluble,–,–
CN[C@H]1CC[C@@H](c2ccc(Cl)c(Cl)c2)c2ccccc21 [Sertraline],Slightly,Slightly soluble,–
CC(=O)S[C@@H]1CC2=CC(=O)CC[C@]2(C)[C@H]2CC[C@@]3(C)[C@@H](CC[C@@]34CCC(=O)O4)[C@H]12 [Spironolactone],–,Insoluble,–
CC(C)(C)c1ccc(C(O)CCCN2CCC(C(O)(c3ccccc3)c3ccccc3)CC2)cc1 (stereo not drawn) [Terfenadine],Slightly,–,–
C[C@]12CC[C@H]3[C@@H](CCC4=CC(=O)CC[C@@]43C)[C@@H]1CC[C@@H]2O [Testosterone],–,Insoluble,Bioavailability ([1]; in words): Low
Cc1ccc(-c2nc3ccc(C)cn3c2CC(=O)N(C)C)cc1 [Zolpidem],Sparingly,–,–
